Values joined by “and” are separate entries in the source; they are usually repeats but may differ in a detail not shown here. Equal values may be shown once.
Assays:
[1] = Body weight during treatment in the MV4;11 model
Protocol: Briefly, the 8- to 10-week old female NSG mice (Jackson Laboratory) were intravenously injected with 5 × 10^6 luciferase-expressing MV4;11 cells (received from Dr. Thomas Look, Dana Farber Cancer Institute). […] For imaging, mice were kept anesthetized with isoflurane, and 50 mg/kg luciferin (E1603, Promega) was administered by intraperitoneal injection. Photonic emission was imaged using the in Vivo Imaging System BLI (IVIS, 200) with total imaging time of 10 s for each mouse.
Measurements are reference to the values obtained at the first day of treatment, which were set as

PRMT4 = PRMT4 (Homo sapiens, UniProt Q86X55); assay: HMT selectivity panel; conditions: PRMT4, 50 µM compound
Description: mM DTT and 0.01% Triton X-100 was used in experiments containing core histone.

[2] = female, CD-1, mouse, plasma, other: i.v. and i.p.

Chain of PRMT4 (Q86X55 whole entry, species assumed): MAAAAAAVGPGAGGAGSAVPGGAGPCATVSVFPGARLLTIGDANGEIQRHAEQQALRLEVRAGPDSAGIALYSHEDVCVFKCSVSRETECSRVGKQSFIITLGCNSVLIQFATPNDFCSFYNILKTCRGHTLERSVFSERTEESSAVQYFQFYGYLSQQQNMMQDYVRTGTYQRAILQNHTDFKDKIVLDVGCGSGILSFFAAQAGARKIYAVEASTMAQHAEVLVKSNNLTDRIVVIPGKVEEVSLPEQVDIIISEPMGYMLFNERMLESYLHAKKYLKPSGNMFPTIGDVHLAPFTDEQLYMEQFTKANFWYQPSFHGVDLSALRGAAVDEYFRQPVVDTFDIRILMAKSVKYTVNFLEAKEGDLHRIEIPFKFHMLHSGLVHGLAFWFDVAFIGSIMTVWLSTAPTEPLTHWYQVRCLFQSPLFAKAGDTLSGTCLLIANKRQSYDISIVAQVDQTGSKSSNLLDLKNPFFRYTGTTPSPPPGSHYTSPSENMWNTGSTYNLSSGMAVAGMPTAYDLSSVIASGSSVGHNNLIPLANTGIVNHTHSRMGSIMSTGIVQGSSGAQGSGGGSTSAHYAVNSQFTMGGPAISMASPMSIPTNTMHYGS
Protocol for PK studies in mice: The LC-MS/MS method consisted of a Shimadzu UFLC 20 A system and chromatographic separation of test compound was achieved using Waters XBridge C18 column (5 cm × 2.1 mm, 3.5 µm). An AB Sciex QTrap 5500 mass spectrometer equipped with an electrospray ionization source (ABI-Sciex, Toronto, Canada) in the positive-ion multiple reaction monitoring (MRM) mode was used for detection. All pharmacokinetic parameters were calculated by noncompartmental methods using WinNonlin® version 3.2 (Pharsight Corporation, Mountain View, CA, USA). Parameters are presented as a mean ± standard deviation (SD).
CL (clearance), AUC (area under the curve),
Cmax (maximum concentration achieved), Tmax (time at which maximum concentration was
achieved), were calculated by noncompartmental methods using WinNonlin® software version

For `CN1CC(C(=O)NCc2ccc3c(-c4cccc(C(N)=S)c4)cn(C4CCN(S(=O)(=O)C(F)(F)F)CC4)c3c2)C1` [AS-99], the “normalized body weight change” value ([1]; days of treatment 7) was 85 and 89 and 87 and 94, the “normalized body weight change” value ([1]; days of treatment 9) was 91 and 93 and 95 and 87 and 90 and the “normalized body weight change” value ([1]; days of treatment 10) was 91 and 98 and 96 and 89 and 95 and 87. The “normalized body weight change” value ([1]; days of treatment 11) was 91 and 96 and 94 and 97 and 100 and 99 and 89, the “normalized body weight change” value ([1]; days of treatment 12) was 95 and 103 and 87 and 88 and the “normalized body weight change” value ([1]; days of treatment 13) was 89 and 95 and 94 and 96 and 105 and 90. For the same compound, the AUC (PK studies in mice; female, CD-1, mouse, plasma, ip, 30 mg/kg) was 10.7 µg·h/mL, the concentration at 0.167 h (PK studies in mice; female, CD-1, mouse, plasma, ip, 30 mg/kg, blood plasma level of AS-99, i.p., time 0.167 h) was 9.8 µM and the concentration at 0.25 h (PK studies in mice; female, CD-1, mouse, plasma, ip, 30 mg/kg, blood plasma level of AS-99, i.p., time 0.25 h) was 9.11 µM. It also gave a concentration at 0.5 h (PK studies in mice; female, CD-1, mouse, plasma, ip, 30 mg/kg, blood plasma level of AS-99, i.p., time 0.5 h) of 6.58 µM, a concentration at 1 h (PK studies in mice; female, CD-1, mouse, plasma, ip, 30 mg/kg, blood plasma level of AS-99, i.p., time 1 h) of 6.11 µM and a concentration at 2 h (PK studies in mice; female, CD-1, mouse, plasma, ip, 30 mg/kg, blood plasma level of AS-99, i.p., time 2 h) of 2.76 µM. It also gave a concentration at 4 h (PK studies in mice; female, CD-1, mouse, plasma, ip, 30 mg/kg, blood plasma level of AS-99, i.p., time 4 h) of 0.84 µM, a concentration at 7 h (PK studies in mice; female, CD-1, mouse, plasma, ip, 30 mg/kg, blood plasma level of AS-99, i.p., time 7 h) of 0.3 µM and a concentration at 16 h (PK studies in mice; female, CD-1, mouse, plasma, ip, 30 mg/kg, blood plasma level of AS-99, i.p., time 16 h) of 0.084 µM. For the same compound, the concentration at 24 h (PK studies in mice; female, CD-1, mouse, plasma, ip, 30 mg/kg, blood plasma level of AS-99, i.p., time 24 h) was 0.0337 µM, the AUC (PK studies in mice; female, CD-1, mouse, plasma, iv, 15 mg/kg) was 9.7 µg·h/mL and the concentration at 0.083 h (PK studies in mice; female, CD-1, mouse, plasma, iv, 15 mg/kg, blood plasma level of AS-99, i.v., time 0.083 h) was 25.8 µM. The concentration at 0.167 h (PK studies in mice; female, CD-1, mouse, plasma, iv, 15 mg/kg, blood plasma level of AS-99, i.v., time 0.167 h) was 10.2 µM, the concentration at 0.25 h (PK studies in mice; female, CD-1, mouse, plasma, iv, 15 mg/kg, blood plasma level of AS-99, i.v., time 0.25 h) was 6.62 µM and the concentration at 0.5 h (PK studies in mice; female, CD-1, mouse, plasma, iv, 15 mg/kg, blood plasma level of AS-99, i.v., time 0.5 h) was 5.2 µM. It also gave a concentration at 1 h (PK studies in mice; female, CD-1, mouse, plasma, iv, 15 mg/kg, blood plasma level of AS-99, i.v., time 1 h) of 1.78 µM, a concentration at 2 h (PK studies in mice; female, CD-1, mouse, plasma, iv, 15 mg/kg, blood plasma level of AS-99, i.v., time 2 h) of 0.854 µM and a concentration at 4 h (PK studies in mice; female, CD-1, mouse, plasma, iv, 15 mg/kg, blood plasma level of AS-99, i.v., time 4 h) of 0.268 µM. The concentration at 7 h (PK studies in mice; female, CD-1, mouse, plasma, iv, 15 mg/kg, blood plasma level of AS-99, i.v., time 7 h) was 0.126 µM, the concentration at 16 h (PK studies in mice; female, CD-1, mouse, plasma, iv, 15 mg/kg, blood plasma level of AS-99, i.v., time 16 h) was 0.0247 µM and the concentration at 24 h (PK studies in mice; female, CD-1, mouse, plasma, iv, 15 mg/kg, blood plasma level of AS-99, i.v., time 24 h) was 0.0151 µM. The Cmax (PK studies in mice; [2]) was > 10 µM, the half-life (PK studies in mice; [2]) was 5 to 6 h and the “blood plasma level of AS-99” value (PK studies in mice; i.p., time 0.167 h) was 8.805 µM and 7.458 µM. The “blood plasma level of AS-99” value (PK studies in mice; i.p., time 0.25 h) was 6.902 µM and 8.721 µM, the “blood plasma level of AS-99” value (PK studies in mice; i.p., time 0.5 h) was 6.6835 µM and 5.152 µM and the “blood plasma level of AS-99” value (PK studies in mice; i.p., time 1 h) was 5.269 µM and 5.185 µM. The “blood plasma level of AS-99” value (PK studies in mice; i.p., time 2 h) was 3.266 µM and 1.801 µM, the “blood plasma level of AS-99” value (PK studies in mice; i.p., time 4 h) was 1.054 µM and 0.7104 µM and the “blood plasma level of AS-99” value (PK studies in mice; i.p., time 7 h) was 0.3519 µM and 0.2475 µM. The “blood plasma level of AS-99” value (PK studies in mice; i.p., time 16 h) was 0.07189 µM and 0.0867 µM, the “blood plasma level of AS-99” value (PK studies in mice; i.p., time 24 h) was 0.04377 µM and 0.04141 µM and the “blood plasma level of AS-99” value (PK studies in mice; i.v., time 0.083 h) was 37.8788 µM. The “blood plasma level of AS-99” value (PK studies in mice; i.v., time 0.167 h) was 7.6431 µM, the “blood plasma level of AS-99” value (PK studies in mice; i.v., time 0.25 h) was 5.774 µM and the “blood plasma level of AS-99” value (PK studies in mice; i.v., time 0.5 h) was 4.798 µM. The “blood plasma level of AS-99” value (PK studies in mice; i.v., time 1 h) was 2.559 µM, the “blood plasma level of AS-99” value (PK studies in mice; i.v., time 2 h) was 0.6111 µM and the “blood plasma level of AS-99” value (PK studies in mice; i.v., time 4 h) was 0.2172 µM. The “blood plasma level of AS-99” value (PK studies in mice; i.v., time 7 h) was 0.09411 µM, the “blood plasma level of AS-99” value (PK studies in mice; i.v., time 16 h) was 0.0298 µM and the “blood plasma level of AS-99” value (PK studies in mice; i.v., time 24 h) was 0.01532 µM. For the same compound, the activity at 50 µM (PRMT4) was 103% and the “% activity” value (PRMT4; 50 µM) was 110.439%.

Reference: article PMC8121805, “Discovery of first-in-class inhibitors of ASH1L histone methyltransferase with anti-leukemic activity” (Nature Communications, 2021)
